Results: patent US20250092085A1, “SAPONIN-BASED ADJUVANTS AND VACCINES” (ASOCIACIÓN CENTRO DE INVESTIGACIÓN COOPERATIVA EN …, priority 2021, published 2025)

Tested on: anti-OVA IgG antibody response (chicken ovalbumin (OVA) as model antigen)
Experiment: In vivo experiment 1: adjuvant activity, anti-OVA IgG antibody production (ELISA of mouse sera)
Design: species or system C75BL6 mice
Conditions: toxin-free OVA 20 μg + adjuvant 50 μg, three bi-weekly subcutaneous injections, endpoint sera day 42; compared with OVA alone and OVA + prior art compound 13
Procedure: Total IgG values were calculated using chicken ovalbumin (OVA) as a model antigen for four groups of mice treated with the following subcutaneous injections: i) toxin-free OVA antigen (20 μg) in combination with the known QA-based adjuvant 13 (50 μg) (identified as QA+OVA), ii) toxin-free OVA antigen (20 μg) in combination with the new adjuvant 25 (50 μg) (identified as QA(oxime)+OVA), iii) toxin-free OVA (20 μg) alone as no-adjuvant control group (identified as OVA) and iv) PBS only as negative control (identified as PBS).
Quantification of antibody production. Antibody titers against OVA protein, or against MUC1 and TnMUC1 peptides in the case of the self-adjuvanting vaccine constructs. were measured by an indirect enzyme-linked immunosorbent assay (ELISA). […] Absorbance (OD, 450 nm) was immediately measured using a BioTek® Synergy HT multi-detection microplate reader.
A straightforward proof-of-principle in vivo experiment was carried out to directly compare the adjuvant activities of prior art compound 13 and the compound of the invention 25 in terms of IgG antibody production, using chicken ovalbumin (OVA) as a model antigen. […] Endpoint sera after three immunizations were probed via ELISA assays by coating 96-well plates with toxin-free OVA (0.5 μg/ml) and total IgG optical density (OD) values (day 42) were calculated (FIG. 4).

C[C@H]1O[C@@H](OC2C(OC(=O)[C@]34CCC(C)(C)CC3C3=CCC5C6(C)CC[C@H](O)C(C)(C=NO)[C@@H]6CC[C@@]5(C)[C@]3(C)C[C@@H]4O)O[C@H](CO)[C@H](NC(=O)CCCCCCCCCCC(=O)O)C2O)C(O)C(O)[C@H]1O[C@@H]1OC[C@@H](O)C(O)C1O (stereo partly shown) [Compound 25]
anti-OVA IgG antibody response (total IgG optical density values): significantly higher
